Data published in the NIST ThermoML archive (doi:10.1016/j.jct.2005.06.011).

Columns and labels:
[1] = refractive index (Na D-line) (dimensionless); xn = mol fraction of the nth substance listed; conditions: 101 kPa, Liquid
[2] = xn = mol fraction of the nth substance listed; conditions: 101 kPa, Liquid; for speed of sound: Linear variable-path acoustic interferometer

CC1CCCCC1 [methylcyclohexane] + CCCCO
Conditions | mass density, 298.15 K [kg/m3] | mass density, 303.15 K [kg/m3] | mass density, 308.15 K [kg/m3] | refractive index, 298.15 K | refractive index, 303.15 K | refractive index, 308.15 K | speed of sound, 298.15 K [m/s] | viscosity, 298.15 K [mPa·s] | viscosity, 303.15 K [mPa·s] | viscosity, 308.15 K [mPa·s]
[1], x1 = 0.1021 | – | – | – | 1.4036 | 1.4015 | 1.3994 | – | – | – | –
[1], x1 = 0.2041 | – | – | – | 1.4034 | 1.4008 | 1.3982 | – | – | – | –
[1], x1 = 0.3027 | – | – | – | 1.406 | 1.4035 | 1.4009 | – | – | – | –
[1], x1 = 0.4013 | – | – | – | 1.4087 | 1.4062 | 1.4037 | – | – | – | –
[1], x1 = 0.5039 | – | – | – | 1.4105 | 1.4081 | 1.4057 | – | – | – | –
[1], x1 = 0.6066 | – | – | – | 1.4121 | 1.4099 | 1.4076 | – | – | – | –
[1], x1 = 0.7014 | – | – | – | 1.4147 | 1.4122 | 1.4097 | – | – | – | –
[1], x1 = 0.7963 | – | – | – | 1.4169 | 1.4143 | 1.4117 | – | – | – | –
[1], x1 = 0.8981 | – | – | – | 1.4193 | 1.4167 | 1.414 | – | – | – | –
[1], x1 = 1 | – | – | – | 1.4217 | 1.4192 | 1.4163 | – | – | – | –
[2], x1 = 0.1021 | 801.93 | 797.96 | 793.95 | – | – | – | 1263 | 2.396 | 2.122 | 1.848
[2], x1 = 0.2041 | 795.62 | 791.47 | 787.32 | – | – | – | 1258 | 2.205 | 1.957 | 1.709
[2], x1 = 0.3027 | 790.23 | 786.03 | 781.87 | – | – | – | 1253 | 2.021 | 1.797 | 1.573
[2], x1 = 0.4013 | 785.45 | 781.24 | 776.99 | – | – | – | 1248 | 1.834 | 1.636 | 1.438
[2], x1 = 0.5039 | 780.86 | 776.57 | 772.29 | – | – | – | 1243 | 1.639 | 1.468 | 1.296
[2], x1 = 0.6066 | 776.73 | 772.4 | 768.04 | – | – | – | 1238 | 1.443 | 1.288 | 1.153
[2], x1 = 0.7014 | 773.21 | 768.83 | 764.46 | – | – | – | 1233 | 1.262 | 1.141 | 1.021
[2], x1 = 0.7963 | 770.14 | 765.74 | 761.34 | – | – | – | 1227 | 1.08 | 0.9828 | 0.8858
[2], x1 = 0.8981 | 767.52 | 763.15 | 758.77 | – | – | – | 1222 | 0.8808 | 0.8104 | 0.74
[2], x1 = 1 | 764.99 | 760.66 | 756.3 | – | – | – | 1217 | 0.6757 | 0.631 | 0.5902
